Patent US20230067159A1, “ROR-GAMMA-T INHIBITOR, PREPARATION METHOD THEREOF AND USE THEREOF” (priority 2020, published 2023)
pIC50: −log10 of the molar value.

Biological target: T1, RORγ (Homo sapiens, UniProt P51449)
T1 construct: The concentration of B-RORγ LBD was 40 nM
T1 sequence (P51449 269-508 limits assumed): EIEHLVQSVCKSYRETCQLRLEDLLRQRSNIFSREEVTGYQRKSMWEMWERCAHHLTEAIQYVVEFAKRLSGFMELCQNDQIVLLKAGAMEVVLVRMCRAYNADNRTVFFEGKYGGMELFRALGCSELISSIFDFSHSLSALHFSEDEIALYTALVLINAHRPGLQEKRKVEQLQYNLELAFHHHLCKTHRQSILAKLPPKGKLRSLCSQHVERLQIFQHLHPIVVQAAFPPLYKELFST
Test: Fluorescence resonance energy transfer (FRET) test, B-RORγ LBD / Biotin-SRC1
Type: biochemical
Experimental: Biological Example 1 Fluorescence Resonance Energy Transfer (FRET) Test
(1) Preparation of RORγ Test Buffer and 10 mM of DTT
100 mL of 1× Basic test buffer (HEPES (pH 7.4), 100 mM NaCl, 0.01% BSA) was prepared, and 154.25 mg of DTT was added. The mixture was well mixed.
(2) Preparation of Compound with Gradient Concentration
a. Standard compound was prepared: Standard compound was diluted with 100% DMSO to 2.5 mM, then diluted 3-fold with 11 serial dilutions to a final concentration of […];
b. Test compound was prepared referring to the standard compound.
(3) Preparation of 1× Protein Solution Mixture
(§1) a. Preparation of the desired amount of 2× B-RORγ LBD/SA-APC protein mixture: The concentration of B-RORγ LBD was 40 nM, and the concentration of SA-APC was 20 nM. They were mixed by gently inversion, and incubated at room temperature for 15 minutes. Then 400 nM of biotin was added. The mixture was mixed by gently inversion, and incubated at room temperature for 10 minutes;
as §1, with “b.” for “a.”, “Biotin-SRC1/SA-eu” for “B-RORγ LBD/SA-APC”, “Bioin-SRC1” for “B-RORγ LBD”, “SA-eu” for “SA-APC”, “200” for “400”
c. The protein mixtures prepared in step a and step b were mixed at a ratio of 1:1, and incubated at room temperature for 5 minutes;
d. 25 μL of the mixture from step c was added to the 384-well plate containing the test compound;
e. The mixture was centrifuged at 1000 rpm for one minute;
f. The mixture was incubated for 1 hour at room temperature.
(4) Data Collection and Calculation
After incubation at room temperature for 1 hour, the fluorescence values at 665 nm and 615 nm were measured with an EnVision plate reader, and the inhibition rate was calculated.
Inhibition rate %)=[(X−Min)/(Max−Min)]×100%
X is the fluorescence value ratio of “665/615” of the test compound; Min is the average value of “665/615” of the DMSO blank control; Max is the average value of “665/615” of the 10 μM SRC.

| Structure (SMILES) | pIC50 |
| --- | --- |
| CCS(=O)(=O)c1ccc([C@H](CO)NC(=O)c2ccc(N3CCC(Oc4ccc(C(F)(F)F)cc4)C3)cc2)cc1 (stereo partly drawn) [Example 12, N—((R)-1-(4-(ethylsulfonyl)phenyl)-2-hydroxyethyl)-4-(3-(4-(trifluoromethyl)phenoxy)pyrrolidin-1-yl)benzamide] | 7.62 |
| CCS(=O)(=O)c1ccc([C@H](CO)NC(=O)c2ccc(N3C[C@@H](Oc4ccc5c(c4)OC(F)(F)O5)C[C@H]3COC(F)F)cc2)cc1 [Example 82, 4-((2S,4S)-4-((2,2-difluorobenzo[d][1,3]dioxol-5-yl)oxy)-2-((difluoromethoxy)methyl)pyrrolidin-1-yl)-N—((R)-1-(4-(ethylsulfonyl)phenyl)-2-hydroxyethyl)benzamide] | 8.40 |
| CCC(F)(F)OC[C@@H]1C[C@H](Oc2ccc(C(F)(F)F)cc2)CN1c1ccc(C(=O)N[C@@H](CO)c2ccc(S(=O)(=O)CC)cc2)cc1 [Example 45] | 7.77 |
| CCC(F)(F)OC[C@@H]1C[C@H](Oc2ccc(C(F)(F)F)cc2)CN1c1ccc(C(=O)N[C@@H](CO)c2ccc(S(=O)(=O)CC)cc2)cn1 [Example 55] | 8.05 |
| CCS(=O)(=O)c1ccc([C@H](CO)NC(=O)c2ccc(N3C[C@H](Oc4ccc(C(F)(F)F)cc4)C[C@H]3COCC3CC3)nc2)cc1 [Example 50] | 7.28 |
| CCS(=O)(=O)c1ccc([C@H](CO)NC(=O)c2ccc(N3C[C@H](Oc4ccc(C(F)(F)F)cc4)C[C@H]3COCC(F)(F)F)cc2)cc1 [Example 30, N—((R)-1-(4-(ethylsulfonyl)phenyl)-2-hydroxyethyl)-4-((2S,4R)-2-((2,2,2-trifluoroethoxy)methyl)-4-(4-(trifluoromethyl)phenoxy)pyrrolidin-1-yl)benzamide] | 7.77 |
| CCS(=O)(=O)c1ccc([C@H](CO)NC(=O)c2ccc(N3C[C@@H](Oc4ccc(C(F)(F)F)cc4)C[C@H]3COC(F)F)c(F)c2)cc1 [Example 85] | 8.35 |
| CCS(=O)(=O)c1ccc(CC(=O)Nc2ccc(N3CCC(Cc4ccc(C(F)(F)F)cc4)C3)cc2)cc1 (stereo not shown) [Example 1, 2-(4-(Ethylsulfonyl)phenyl)-N-(4-(3-(4-(trifluoromethyl)benzyl)pyrrolidin-1-yl)phenyl) acetamide] | 7.92 |
| CCS(=O)(=O)c1ccc(CNC(=O)c2ccc(N3C[C@@H](Oc4ccc(OC(F)(F)F)cn4)C[C@H]3COC(F)F)cc2)nc1 [Example 112] | 8.10 |
| CCC(F)(F)OC[C@@H]1C[C@H](Oc2ccc(C(F)(F)F)cc2)CN1c1ccc(C(=O)N[C@@H](CO)c2ccc(S(=O)(=O)CC)cn2)cc1 [Example 73] | 7.89 |
| CCS(=O)(=O)c1ccc([C@H](CO)NC(=O)c2ccc(N3C[C@@H](Oc4ccc(C(F)(F)F)cc4)C[C@H]3COC(F)F)nc2OC)cc1 [Example 88] | 7.52 |
| CCCOC[C@@H]1C[C@@H](Oc2ccc(C(F)(F)F)cc2)CN1c1ccc(C(=O)N[C@@H](CO)c2ccc(S(=O)(=O)CC)cc2)cc1 [Example 27, N—((R)-1-(4-(ethylsulfonyl)phenyl)-2-hydroxyethyl)-4-((2S,4R)-2-(propoxymethyl)-4-(4-(trifluoromethyl)phenoxy)pyrrolidin-1-yl)benzamide] | 7.68 |
| CCS(=O)(=O)c1ccc([C@H](CCO)NC(=O)c2ccc(N3C[C@H](Oc4ccc(OC(F)(F)F)cc4)C[C@H]3COC(F)F)nc2)cc1 [Example 115] | 7.89 |
| CCS(=O)(=O)c1ccc([C@H](CO)NC(=O)c2ccc(N3CC[C@H](Oc4ccc(C(F)(F)F)cc4)C3)cc2)cc1 [Example 14, N—((R)-1-(4-(ethylsulfonyl)phenyl)-2-hydroxyethyl)-4-((S)-3-(4-(trifluoromethyl)phenoxy)pyrrolidin-1-yl)benzamide] | 7.70 |
| CCS(=O)(=O)c1ccc([C@H](CCO)NC(=O)c2ccc(N3C[C@@H](Oc4ccc(OC(F)(F)F)cn4)C[C@H]3COC(F)F)cc2)cc1 [Example 108] | 8.22 |
| CCS(=O)(=O)c1ccc(CNC(=O)c2cnc(N3C[C@@H](Oc4ccc(OC(F)(F)F)cn4)C[C@H]3COC(F)F)c(F)c2)cc1 [Example 111] | 8.30 |

| Structure (SMILES) | pIC50 |
| --- | --- |
| CCC(F)(F)OC[C@@H]1C[C@H](Oc2ccc(C(F)(F)F)cc2)CN1c1ncc(C(=O)N[C@@H](CO)c2ccc(S(=O)(=O)CC)cc2)cn1 [Example 67] | 8.10 |
| CCS(=O)(=O)c1ccc(CNC(=O)c2ccc(N3C[C@@H](Oc4ccc(OC(F)(F)F)cn4)C[C@H]3COC(F)F)cc2)cc1 [Example 107] | 7.11 |
| CCCCOC[C@@H]1C[C@@H](Oc2ccc(C(F)(F)F)cc2)CN1c1ccc(C(=O)N[C@@H](CO)c2ccc(S(=O)(=O)CC)cc2)cc1 [Example 28] | 7.88 |
| CCOC[C@@H]1CC(Oc2ccc(C(F)(F)F)cc2)CN1c1ccc(C(=O)NCc2ccc(S(=O)(=O)CC)cc2)cc1 (stereo partly shown) [Example 19] | 7.73 |
| CCS(=O)(=O)c1ccc([C@H](CO)NC(=O)c2cnc(N3C[C@H](Oc4ccc(C(F)(F)F)cc4)C[C@H]3COC(F)(F)F)nc2)cc1 [Example 95, N—((R)-1-(4-(ethylsulfonyl)phenyl)-2-hydroxyethyl)-2-((2S,4R)-2-((trifluoromethoxy)methyl)-4-(4-(trifluoromethyl)phenoxy)pyrrolidin-1-yl)pyrimidine-5-carboxamide] | 7.35 |
| [2H]C([2H])([2H])OC[C@@H]1C[C@H](Oc2ccc(C(F)(F)F)cc2)CN1c1ccc(C(=O)NCc2ccc(S(=O)(=O)CC)cc2)cc1 [Example 109, N-(4-(ethylsulfonyl)benzyl)-4-((2S,4S)-2-(3,3,3-d3-methoxymethyl)-4-(4-(trifluoromethyl)phenoxy)pyrrolidin-1-yl)benzamide] | 8.19 |
| CCS(=O)(=O)c1ccc([C@H](CO)NC(=O)c2ccc(N3C[C@@H](Oc4ccc(C(F)(F)F)cc4)C[C@H]3CCOC(F)F)cc2)cc1 [Example 47] | 8.34 |
| CCS(=O)(=O)c1ccc([C@H](CCO)NC(=O)c2ccc(N3CC(Oc4ccc(OC(F)(F)F)cc4)C[C@H]3COC(F)(F)F)cc2)cc1 (stereo in doubt) [Example 118, N—((S)-1-(4-(ethylsulfonyl)phenyl)-3-hydroxypropyl)-4-((2S,4S)-2-((trifluoromethoxy)methyl)-4-(4-(trifluoromethoxy)phenoxy)pyrrolidin-1-yl)benzamide] | 8.10 |
| CCS(=O)(=O)c1ccc([C@H](CO)NC(=O)c2ccc(N3C[C@@H](Oc4ccc(C(F)(F)F)cc4)C[C@H]3COC(F)(F)F)cc2C#N)cc1 [Example 96, 2-cyano-N—((R)-1-(4-(ethylsulfonyl)phenyl)-2-hydroxyethyl)-4-((2S,4S)-2-((trifluoromethoxy)methyl)-4-(4-(trifluoromethyl)phenoxy)pyrrolidin-1-yl)benzamide] | 7.19 |
| CCS(=O)(=O)c1ccc(CNC(=O)c2ccc(N3C[C@H](Oc4ccc(C(F)(F)F)cc4)C[C@H]3COC)cc2)cc1 [Example 25, N-(4-(ethylsulfonyl)benzyl)-4-((2S,4R)-2-(methoxymethyl)-4-(4-(trifluoromethyl)phenoxy)pyrrolidin-1-yl)benzamide] | 7.70 |
| CCS(=O)(=O)c1ccc([C@H](CO)NC(=O)c2ccc(N3C[C@@H](Oc4ccc(C(F)(F)F)cc4)C[C@H]3COC(F)F)c(OC)c2)cc1 [Example 89] | 7.59 |
| CCS(=O)(=O)c1ccc(CNC(=O)c2cnc(N3C[C@@H](Oc4ccc(Cl)cn4)C[C@H]3COC(F)F)c(F)c2)nc1 [Example 113, 6-((2S,4S)-4-((5-chloropyridin-2-yl)oxy)-2-((difluoromethoxy)methyl)pyrrolidin-1-yl)-N-((5-(ethylsulfonyl)pyridin-2-yl)methyl)-5-fluoronicotinamide] | 8.21 |
| CCS(=O)(=O)c1ccc([C@H](CO)NC(=O)c2ccc(N3C[C@@H](Oc4ccc(C(F)(F)F)cc4)C[C@H]3COC(F)F)cc2F)cc1 [Example 86] | 8.22 |
| CCOC[C@@H]1CC(Oc2ccc(C(F)(F)F)cc2)CN1c1ccc(C(=O)N[C@@H](CO)c2ccc(S(=O)(=O)CC)cc2)cc1 (stereo partly shown) [Example 20] | 7.85 |
| CCS(=O)(=O)c1ccc([C@H](CCOP(=O)(O)O)NC(=O)c2ccc(N3C[C@@H](Oc4ccc(OC(F)(F)F)cc4)C[C@H]3COC(F)F)cc2)cc1 [Example 125, sodium (S)-3-(4-((2S,4S)-2-((difluoromethoxy)methyl)-4-(4-(trifluoromethoxy)phenoxy)pyrrolidin-1-yl)benzamino)-3-(4-(ethylsulfonyl)phenyl)propyl phosphate] | 6.85 |
